According to US11873517B2, “Candida tropicalis strain having improved tolerance to the cytotoxicity of substrates, and method for producing dicarboxylic acid using same” (priority 2018, dated 2024):

Test system: Candida tropicalis MYA_3404 strain
Experiment: toxicity test of substrates and product: growth of the strain in YNB medium
Details: 36 hours; for growth of the strain in the medium to which the substance was added, compared to the control: added at 5 g/L to YNB medium, 30° C., 200 rpm, FIG. 1

| SMILES | growth of the strain in the medium to which the substance was added, compared to the control | cytotoxicity compared to the sebacic acid (5 g/L in YNB medium) |
| --- | --- | --- |
| CCCCCCCCCC(=O)O [DA, decanoic acid] | did not grow | – |
| CCCCCCCCCC(=O)OC [DAME, decanoic acid methyl ester] | did not grow | stronger cytotoxicity |
| O=C(O)CCCCCCCCC(=O)O [sebacic acid] | the growth rate and the total cell mass of the strain decreased | – |
